Experimental findings from patent publication US20050142531A1, “Peptidically buffered formulations for electrotransport applications and methods of making” (priority 2003, published 2005) are described below.

Square brackets hold non-standard residues; d marks the D form. Peptide text beside a SMILES is read from it. Cit = NC(=O)NCCC[C@H](N)C(=O)O

The nature of this series: pKa, pI and % salt of peptidic buffers. Format: physicochemical.

Take `N[C@@H](Cc1ccc(O)cc1)C(=O)N[C@@H](Cc1c[nH]cn1)C(=O)O` [Tyr-His] (H-Tyr-His-OH; N-terminus and C-terminus assumed): the “pka A (acidic pKa)” value by setting is: (Table 2, first acidic pKa) 2.42; (Table 2, second acidic pKa) 9.90. Also, the “pka B (basic pKa)” value is, setting by setting: (Table 2, first basic pKa) 6.71; (Table 2, second basic pKa) 7.60.

As to `NCC(O)CC[C@H](N)C(=O)N[C@@H](Cc1c[nH]cn1)C(=O)O` (some centres unmarked) [Hydroxylysine-His], the “pka A (acidic pKa)” value (Table 2, first acidic pKa) is recorded as 2.42. Further, the “pka B (basic pKa)” value reads like this: (Table 2, first basic pKa) 6.71; (Table 2, second basic pKa) 7.40; (Table 2, third basic pKa) 9.70.

Regarding `CC(C)[C@H](NC(=O)[C@@H](N)Cc1c[nH]cn1)C(=O)O` [His-Val] (H-His-Val-OH; N-terminus and C-terminus assumed), the “pka A (acidic pKa)” value (Table 2, first acidic pKa) worked out at 3.18. Further, the “pka B (basic pKa)” value reads like this: (Table 2, first basic pKa) 6.10; (Table 2, second basic pKa) 7.80.

For the molecule `N[C@@H](Cc1c[nH]cn1)C(=O)N1CCC[C@H]1C(=O)O` [His-Pro], under “Table 2, first acidic pKa”, the “pka A (acidic pKa)” value turned out to be 2.62. Also, the “pka B (basic pKa)” value reads like this: (Table 2, first basic pKa) 6.10; (Table 2, second basic pKa) 7.80.

`NC(=O)C[C@H](NC(=O)[C@@H](N)Cc1c[nH]cn1)C(=O)O` [His-Asn] (H-His-Asn-OH; N-terminus and C-terminus assumed): for the setting “Table 2, first acidic pKa”, the “pka A (acidic pKa)” value is 2.62. For the same molecule, the “pka B (basic pKa)” value reads like this: (Table 2, first basic pKa) 6.10; (Table 2, second basic pKa) 7.80.

For the molecule `C[C@@H](O)[C@H](NC(=O)[C@@H](N)Cc1c[nH]cn1)C(=O)O` [His-Thr] (H-His-Thr-OH; N-terminus and C-terminus assumed), under “Table 2, first acidic pKa”, the “pka A (acidic pKa)” value came out at 2.98. Besides, the “pka B (basic pKa)” value reads like this: (Table 2, first basic pKa) 6.10; (Table 2, second basic pKa) 7.80.

As for `NC(=O)NCCC[C@H](N)C(=O)N[C@@H](Cc1c[nH]cn1)C(=O)O` [Citrulline-His] (H-[Cit]-His-OH; N-terminus and C-terminus assumed), the “pka A (acidic pKa)” value (Table 2, first acidic pKa) amounted to 2.42. The “pka B (basic pKa)” value (Table 2, first basic pKa) is on record as 6.71 and the “pka B (basic pKa)” value (Table 2, second basic pKa) is 7.90.

In the case of `N=C(N)NCCC[C@H](NC(=O)[C@@H](N)CCC(=O)O)C(=O)O` [Glu-Arg] (H-Glu-Arg-OH; N-terminus and C-terminus assumed), the “pka A (acidic pKa)” value runs as follows: (Table 2, first acidic pKa) 2.66; (Table 2, second acidic pKa) 4.01. The “pka B (basic pKa)” value by setting is: (Table 2, first basic pKa) 7.94; (Table 2, second basic pKa) 12.50.

Consider `O=C(O)[C@H](Cc1c[nH]cn1)NC(=O)[C@@H]1CC(O)CN1` (some centres unmarked) [Hydroxyproline-His], for which, where the note is “Table 2, first acidic pKa”, the “pka A (acidic pKa)” value is on record as 2.42. Besides, the “pka B (basic pKa)” value is, setting by setting: (Table 2, first basic pKa) 6.71; (Table 2, second basic pKa) 8.23.

In the case of `NC(=O)C[C@H](N)C(=O)N[C@@H](Cc1c[nH]cn1)C(=O)O` [Asn-His] (H-Asn-His-OH; N-terminus and C-terminus assumed), the “pka A (acidic pKa)” value (Table 2, first acidic pKa) is 2.42. Besides, the “pka B (basic pKa)” value (Table 2, first basic pKa) is recorded as 6.71 and the “pka B (basic pKa)” value (Table 2, second basic pKa) is 7.30.

`N[C@@H](Cc1c[nH]cn1)C(=O)N1CC(O)C[C@H]1C(=O)O` (some centres unmarked) [His-Hydroxyproline]: the “pka A (acidic pKa)” value (Table 2, first acidic pKa) is 2.42. Also, the “pka B (basic pKa)” value was found to be 6.10 (Table 2, first basic pKa) and 7.80 (Table 2, second basic pKa).

On to `NCC(O)CC[C@H](NC(=O)[C@@H](N)Cc1c[nH]cn1)C(=O)O` (some centres unmarked) [His-Hydroxylysine], for which the “pka A (acidic pKa)” value (Table 2, first acidic pKa) stood at 3.05. Besides, the “pka B (basic pKa)” value is, setting by setting: (Table 2, first basic pKa) 6.10; (Table 2, second basic pKa) 7.80; (Table 2, third basic pKa) 9.70.

Take `N=C(N)NCCC[C@H](N)C(=O)N[C@@H](CCC(=O)O)C(=O)O` [Arg-Glu] (H-Arg-Glu-OH; N-terminus and C-terminus assumed): the “pka A (acidic pKa)” value is on record as 2.74 (Table 2, first acidic pKa) and 4.18 (Table 2, second acidic pKa). Also, the “pka B (basic pKa)” value runs as follows: (Table 2, first basic pKa) 7.92; (Table 2, second basic pKa) 12.50.
